Key:
[1] = Biodistribution of JV-DE1 after periorbital skin (NIODP) application to one eye; type: in vivo, Cynomolgus monkeys; conditions: 165.4 μg to OD via NIODP; for OS/OD retina ratio of JV-DE1: undosed/dosed retina
Description: An experiment was performed to determine the biodisposition of 4,5-dihydro-N-[4-[[4-(1-methylethoxy) phenyl]methyl] phenyl]-1H-imadazol-2-amine (JV-DE1) following topical application to the periorbital skin that surrounds the anterior portion of the globe was performed.
165.4 μg of JV-DE1, a synthesized chemical compound, was applied to the right eye (OD) of Cynomolgus monkeys via NIODP. The monkeys were restrained from rubbing their eyes for 2 hours post dose and closely monitored by experimenter(s) to prevent cross-contamination of the untreated eye, yet JV-DE1 was quickly found in the undosed upper eyelid (733.4 ng/g), retina (5.2 ng/g) and Vitreous humor (1.03 ng/mL) as early as 0.5-hour post dose. Throughout the 3, 6, and 24-hour post dose points, low levels of JV-DE1 was detected in the retina at 5.5 ˜ 45.5 ng/g of the dosed eye, and 1.4 ˜ 6.3 ng/g of the undosed eye. The ratio of JV-DE1 in undoseD retina vs. the dosed retina was below 25.5% at all post dose time points tested.

[2] = Baseline endogenous levels of DHA, DHA-EE and JV-DE1; type: in vivo; conditions: undosed Bama minipigs
Description: Endogenous levels were measured in the plasma, cerebrospinal fluid, ocular tissues (retina, optic nerve, ocular muscles), and brain. The endogenous levels DHA are not attributable to NIODP administration of DHA, DHA-EE, or JV-DE1. The baseline data collected in Table 4 was taken from the same lot of pigs, from the same vendor, as the information collected in Tables 5-7.

[3] = JV-DE1 distribution after single periorbital skin administration; type: in vivo, Bama minipigs
Description: In this example, 158.45 μg of 4,5-dihydro-N-[4-[[4-(1-methylethoxy) phenyl]methyl] phenyl]-1H-imadazol-2-amine (JV-DE1) was applied to the periorbital skin of a right eye of a Bama minipig. […] 1.37 ng/g of tissue and 1.35 ng/g of tissue of JV-DE1 was measured in the left and right halves of the brain, respectively. The average amount of JV-DE1 present in the brain 3 hours post-dosage was 1.36 ng/g.
Given that the average Bama pig brain weighs around 60 g, the amount of JV-DE1 delivered to the brain can be estimated to be […]. Therefore, 0.051% of the 158.45 μg of JV-DE1 administered to the periorbital skin was delivered to the brain, […] than the deliverability of DHA via NIODP. As a comparison, only about 0.025% of DHA that is orally administered is delivered to the brain or CNS.

[4] = JV-DE1 in cornea and retina after single eye drop administration; type: in vivo, New Zealand Rabbits; conditions: 120 μg/eye eye drops to the right eye
Excerpt: NIODP may be more efficient than topical eye drops for corneal delivery to treat corneal disorders, such as dry disease. […] Accordingly, NIODP may be used to deliver other compounds (such as DHA) to the cornea to treat corneal diseases, such as dry eye.

[5] = 3 h, JV-DE1 158.45 μg to periorbital skin of right eye

JV-DE1 in plasma ([1]; 0 h post dose): BLQ | JV-DE1 in plasma ([1]; 0.5 h post dose): 0.131 ng/mL | JV-DE1 in plasma ([1]; 3 h post dose): 0.21 ng/mL | JV-DE1 in plasma ([1]; 6 h post dose): 0.26 ng/mL | JV-DE1 in plasma ([1]; 24 h post dose): BLQ | JV-DE1 in cornea ([1]; OD (dosed eye), 0.5 h): 9299.3 ng/g | JV-DE1 in retina ([1]; OD (dosed eye), 0.5 h): 39.6 ng/g | JV-DE1 in upper eyelid ([1]; OD (dosed eye), 0.5 h): 26535.4 ng/g | JV-DE1 in vitreous humor ([1]; OD (dosed eye), 0.5 h): 15.2 ng/mL | Retina/Upper eyelid ratio of JV-DE1 ([1]; OD (dosed eye), 0.5 h): 0.1% | JV-DE1 in cornea ([1]; OD (dosed eye), 3 h): 16688.7 ng/g | JV-DE1 in retina ([1]; OD (dosed eye), 3 h): 27.9 ng/g | JV-DE1 in upper eyelid ([1]; OD (dosed eye), 3 h): 32454.7 ng/g | JV-DE1 in vitreous humor ([1]; OD (dosed eye), 3 h): 7.79 ng/mL | Retina/Upper eyelid ratio of JV-DE1 ([1]; OD (dosed eye), 3 h): 0.1% | JV-DE1 in cornea ([1]; OD (dosed eye), 6 h): 23929.5 ng/g | JV-DE1 in retina ([1]; OD (dosed eye), 6 h): 45.5 ng/g | JV-DE1 in upper eyelid ([1]; OD (dosed eye), 6 h): 7945.6 ng/g | JV-DE1 in vitreous humor ([1]; OD (dosed eye), 6 h): 3.9 ng/mL | Retina/Upper eyelid ratio of JV-DE1 ([1]; OD (dosed eye), 6 h): 0.6% | JV-DE1 in cornea ([1]; OD (dosed eye), 24 h): 1621.3 ng/g | JV-DE1 in retina ([1]; OD (dosed eye), 24 h): 5.5 ng/g | JV-DE1 in upper eyelid ([1]; OD (dosed eye), 24 h): 11597.8 ng/g | JV-DE1 in vitreous humor ([1]; OD (dosed eye), 24 h): 18.97 ng/mL | Retina/Upper eyelid ratio of JV-DE1 ([1]; OD (dosed eye), 24 h): 0.0% | JV-DE1 in cornea ([1]; OS (undosed eye), 0.5 h): 0 ng/g | JV-DE1 in retina ([1]; OS (undosed eye), 0.5 h): 5.2 ng/g | JV-DE1 in upper eyelid ([1]; OS (undosed eye), 0.5 h): 733.4 ng/g | JV-DE1 in vitreous humor ([1]; OS (undosed eye), 0.5 h): 1.03 ng/mL | Retina/Upper eyelid ratio of JV-DE1 ([1]; OS (undosed eye), 0.5 h): 0.7% | JV-DE1 in cornea ([1]; OS (undosed eye), 3 h): 0 ng/g | JV-DE1 in retina ([1]; OS (undosed eye), 3 h): 6.3 ng/g | JV-DE1 in upper eyelid ([1]; OS (undosed eye), 3 h): 1637 ng/g | JV-DE1 in vitreous humor ([1]; OS (undosed eye), 3 h): 1.85 ng/mL | Retina/Upper eyelid ratio of JV-DE1 ([1]; OS (undosed eye), 3 h): 0.4% | JV-DE1 in cornea ([1]; OS (undosed eye), 6 h): 0 ng/g | JV-DE1 in retina ([1]; OS (undosed eye), 6 h): 4.8 ng/g | JV-DE1 in upper eyelid ([1]; OS (undosed eye), 6 h): 378.2 ng/g | JV-DE1 in vitreous humor ([1]; OS (undosed eye), 6 h): 0.57 ng/mL | Retina/Upper eyelid ratio of JV-DE1 ([1]; OS (undosed eye), 6 h): 1.3% | JV-DE1 in cornea ([1]; OS (undosed eye), 24 h): 0 ng/g | JV-DE1 in retina ([1]; OS (undosed eye), 24 h): 1.4 ng/g | JV-DE1 in upper eyelid ([1]; OS (undosed eye), 24 h): 46.3 ng/g | JV-DE1 in vitreous humor ([1]; OS (undosed eye), 24 h): 0 ng/mL | Retina/Upper eyelid ratio of JV-DE1 ([1]; OS (undosed eye), 24 h): 3.0% | Ratio of JV-DE1 in undosed retina vs. dosed retina ([1]; all post dose time points tested): below 25.5% | OS/OD retina ratio of JV-DE1 ([1]; 0.5 h): 13.1% | OS/OD retina ratio of JV-DE1 ([1]; 3 h): 22.6% | OS/OD retina ratio of JV-DE1 ([1]; 6 h): 10.5% | OS/OD retina ratio of JV-DE1 ([1]; 24 h): 25.5% | Baseline endogenous concentration in brain [2]: BLQ | Baseline endogenous concentration in cerebrospinal fluid [2]: BLQ | Baseline endogenous concentration in eye tissue homogenate including (Retina, optic nerve, ocular muscle) [2]: BLQ | Baseline endogenous concentration in plasma [2]: BLQ | Drug Concentration in Plasma ([3]; 0 h, JV-DE1 158.45 μg to periorbital skin of right eye): BLQ | Drug Concentration in Plasma ([3]; 1 h, JV-DE1 158.45 μg to periorbital skin of right eye): BLQ | Percentage of administered dose delivered to the brain ([3]; 3 h, JV-DE1 158.45 μg periorbital, whole brain estimate): 0.051% | % of administered dose: Cerebrospinal fluid [3, 5]: 0% | % of administered dose: brain-left [3, 5]: 0.0518% | % of administered dose: brain-right [3, 5]: 0.0513% | % of administered dose: inferior rectus muscle-left [3, 5]: 0.0061% | % of administered dose: inferior rectus muscle-right [3, 5]: 0.0170% | % of administered dose: lateral rectus muscle-left [3, 5]: 0.0063% | % of administered dose: lateral rectus muscle-right [3, 5]: 0.0175% | % of administered dose: medial rectus muscle-left [3, 5]: 0.0071% | % of administered dose: medial rectus muscle-right [3, 5]: 0.0260% | % of administered dose: optic nerve-left [3, 5]: 0.0006% | % of administered dose: optic nerve-right [3, 5]: 0.0047% | % of administered dose: retina-left [3, 5]: 0.0002% | % of administered dose: retina-right [3, 5]: 0.0003% | % of administered dose: superior rectus muscle-left [3, 5]: 0.0140% | % of administered dose: superior rectus muscle-right [3, 5]: 0.0237% | Average JV-DE1 present in the brain [3, 5]: 1.36 ng/g | Drug Concentration in Plasma [3, 5]: BLQ | Drug Concentration in Tissue: Cerebrospinal fluid [3, 5]: BLQ | Drug Concentration in Tissue: brain-left [3, 5]: 1.37 ng/g | Drug Concentration in Tissue: brain-right [3, 5]: 1.35 ng/g | Drug Concentration in Tissue: inferior rectus muscle-left [3, 5]: 57.27 ng/g | Drug Concentration in Tissue: inferior rectus muscle-right [3, 5]: 58.71 ng/g | Drug Concentration in Tissue: lateral rectus muscle-left [3, 5]: 53.65 ng/g | Drug Concentration in Tissue: lateral rectus muscle-right [3, 5]: 43.50 ng/g | Drug Concentration in Tissue: medial rectus muscle-left [3, 5]: 43.67 ng/g | Drug Concentration in Tissue: medial rectus muscle-right [3, 5]: 65.54 ng/g | Drug Concentration in Tissue: optic nerve-left [3, 5]: 11.94 ng/g | Drug Concentration in Tissue: optic nerve-right [3, 5]: 33.63 ng/g | Drug Concentration in Tissue: retina-left [3, 5]: 2.30 ng/g | Drug Concentration in Tissue: retina-right [3, 5]: 2.70 ng/g | Drug Concentration in Tissue: superior rectus muscle-left [3, 5]: 85.83 ng/g | Drug Concentration in Tissue: superior rectus muscle-right [3, 5]: 88.37 ng/g | Amount of JV-DE1 delivered to the brain (estimated) ([3]; 3 h, brain weight around 60 g, JV-DE1 158.45 μg periorbital): 80.6 ng | JV-DE1 in cornea ([4]; OD (dosed eye), 0.5 h): 12124.85 ng/g | JV-DE1 in retina ([4]; OD (dosed eye), 0.5 h): 92.03 ng/g | JV-DE1 in cornea ([4]; OD (dosed eye), 2 h): 5952.6 ng/g | JV-DE1 in retina ([4]; OD (dosed eye), 2 h): 49.13 ng/g | JV-DE1 in cornea ([4]; OD (dosed eye), 6 h): 5125.52 ng/g | JV-DE1 in retina ([4]; OD (dosed eye), 6 h): 58.87 ng/g | JV-DE1 in cornea ([4]; OD (dosed eye), 24 h): 542.19 ng/g | JV-DE1 in retina ([4]; OD (dosed eye), 24 h): 6.82 ng/g | JV-DE1 in cornea ([4]; OS (undosed eye), 0.5 h): 78.35 ng/g | JV-DE1 in retina ([4]; OS (undosed eye), 0.5 h): 7.35 ng/g | JV-DE1 in cornea ([4]; OS (undosed eye), 2 h): 28.92 ng/g | JV-DE1 in retina ([4]; OS (undosed eye), 2 h): 3.38 ng/g | JV-DE1 in cornea ([4]; OS (undosed eye), 6 h): 67.82 ng/g | JV-DE1 in retina ([4]; OS (undosed eye), 6 h): 1.42 ng/g | JV-DE1 in cornea ([4]; OS (undosed eye), 24 h): 11.03 ng/g | JV-DE1 in retina ([4]; OS (undosed eye), 24 h): BLQ
Structure (SMILES): CC(C)Oc1ccc(Cc2ccc(NC3=NCCN3)cc2)cc1 [JV-DE1, 4,5-dihydro-N-[4-[[4-(1-methylethoxy)phenyl]methyl]phenyl]-1H-imadazol-2-amine]

From patent US20240350447A1, “DELIVERY METHODS FOR TREATING BRAIN AND CENTRAL NERVOUS SYSTEM DISEASES” (JENIVISION INC., priority 2021, published 2024)
